Results reported in patent US3993771A (priority 1974, dated 1976).
Converted amounts (≈) assume the structure as drawn. Read-outs that look alike come from different tables or passages of the source.

Columns and labels:
Pyricularia oryzae [1] = type: in vivo; conditions: preventive
Pyricularia oryzae [2] = type: in vivo
Pyricularia oryzae [3] = experiment: microbe, parasite or virus in culture; type: cell-based; conditions: for Diameter of mycelium / Diameter of mycelium (symbol): 27° C., 2 weeks; for Diameter of mycelium: untreated 63.5 m/m; for MIC: Pyricularia oryzae, 336 h, read-out: MIC (minimum inhibitory concentration on mycelial growth)
[4] = system: rice plants (var.: Kinki No. 33); conditions: preventive test
[5] = system: rice plants (var.: Kinki No. 33)
[6] = concentration of active ingredient 500 ppm
[7] = curative, concentration of active ingredient 500 ppm
[8] = concentration of active ingredient 100 ppm
[9] = curative, concentration of active ingredient 200 ppm
[10] = curative, concentration of active ingredient 20 ppm

Compound	Diameter of mycelium (Pyricularia oryzae [3]; 2 ppm) [m/m]	Diameter of mycelium (Pyricularia oryzae [3]; 10 ppm) [m/m]	Diameter of mycelium (Pyricularia oryzae [3]; 50 ppm) [m/m]	Diameter of mycelium (Pyricularia oryzae [3]; 250 ppm) [m/m]	MIC (Pyricularia oryzae [3]) [mg/L]	Disease control (Pyricularia oryzae [1]; [8]) [%]	Disease severity (Pyricularia oryzae [1]; [8]) [%]	Disease control (Pyricularia oryzae [2]; [9]) [%]	Disease severity (Pyricularia oryzae [2]; [9]) [%]	Phytotoxicity ([4]; 100 ppm)	further results
O=C1OCCC1=Cc1ccc(Cl)cc1 [Control (vi), reference compound]	66.0	51.5	34.5	3.0	250 (≈ 1200 µM)	–	–	–	–	–	Disease control (Pyricularia oryzae [1]; [6]): 0%; Disease severity (Pyricularia oryzae [1]; [6]): 100.0%; Disease control (Pyricularia oryzae [2]; [7]): 0%; Disease severity (Pyricularia oryzae [2]; [7]): 100.0%; Phytotoxicity ([4]; 500 ppm): no
CC1CC(=Cc2ccccc2Cl)C(=O)O1 (stereo not drawn) [Compound 6, α-(o-chlorobenzylidene)-γ-valerolactone]	0	0	0	0	< 2	100	0	100	0	no	–
C=C1CCOC1=O [Control (i), reference compound]	–	–	–	–	–	–	–	–	–	–	Disease control (Pyricularia oryzae [1]; [6]): 0%; Disease severity (Pyricularia oryzae [1]; [6]): 100%; Phytotoxicity ([4]; 500 ppm): no
Cc1ccccc1C=C1CC(C)(C)OC1=O [Compound 12, α-(o-methylbenzylidene)-γ-dimethyl-γ-butyrolactone]	2.0	0	0	0	2 (≈ 9.25 µM)	97	2.5	–	–	no	–
CC1CC(=Cc2ccccc2Br)C(=O)O1 (stereo not drawn) [Compound 7]	0	0	0	0	< 2	100	0	100	0	no	–
CC(C)OP(=O)(OC(C)C)SCc1ccccc1 [Commercial fungicide A, 0,0-diisopropyl-S-benzylphosphorothioate, reference compound]	–	–	–	–	–	92	7.5	–	–	no	–
O=C1OCCC1=Cc1ccc([N+](=O)[O-])cc1 [Control (v), reference compound]	69.5	58.5	43.0	30.5	> 250	–	–	–	–	–	Disease control (Pyricularia oryzae [1]; [6]): 0%; Disease severity (Pyricularia oryzae [1]; [6]): 100.0%; Phytotoxicity ([4]; 500 ppm): no
Cc1cccc(C)c1C=C1CCOC1=O [Compound 4]	0	0	0	0	< 2	99	1.3	–	–	no	–
CCc1ccccc1C=C1CC(C)OC1=O (stereo not drawn) [Compound 14]	–	0	0	0	~2 (≈ 9.25 µM)	100	0	100	0	no	Diameter of mycelium (symbol) (Pyricularia oryzae [3]; 2 ppm): ±
CC(C)(C)C1CC(=Cc2ccccc2Cl)C(=O)O1 (stereo not drawn) [Compound 10]	–	0	0	0	~2 (≈ 7.55 µM)	99	1.3	–	–	no	Diameter of mycelium (symbol) (Pyricularia oryzae [3]; 2 ppm): ±
CC1CC(=Cc2c(Cl)cccc2Cl)C(=O)O1 (stereo not drawn) [Compound 8]	0	0	0	0	< 2	100	0	–	–	no	–
COc1ccccc1C=C1CCOC1=O [Control (iv), reference compound]	63.0	48.5	31.5	–	~250 (≈ 1220 µM)	–	–	–	–	–	Disease control (Pyricularia oryzae [1]; [6]): 2%; Disease severity (Pyricularia oryzae [1]; [6]): 97.5%; Disease control (Pyricularia oryzae [2]; [7]): 0%; Disease severity (Pyricularia oryzae [2]; [7]): 100.0%; Diameter of mycelium (symbol) (Pyricularia oryzae [3]; 250 ppm): ±; Phytotoxicity ([4]; 500 ppm): no; Phytotoxicity ([5]; curative test, 500 ppm): no
CC1CC(=Cc2ccccc2C(C)C)C(=O)O1 (stereo not drawn) [Compound 13]	–	0	0	0	~2 (≈ 8.68 µM)	100	0	99	1.3	no	Diameter of mycelium (symbol) (Pyricularia oryzae [3]; 2 ppm): ±
Cc1ccccc1C=C1CCOC1=O [Compound 1]	0	0	0	0	< 2	100	0	99	1.3	no	Phytotoxicity ([5]; curative test, 200 ppm): no
CCOP(=O)(Sc1ccccc1)Sc1ccccc1 [Commercial fungicide C, O-ethyl-S,S-diphenyl-phosphorodithiolate, reference compound]	–	–	–	–	–	–	–	–	–	–	Disease control (Pyricularia oryzae [2]; in vivo): 92%; Disease severity (Pyricularia oryzae [2]; in vivo): 7.5%; Phytotoxicity ([5]; in vivo): no
C[C@H]1O[C@H](OC2[C@@H](O)[C@@H](O)C(O)[C@H](O)[C@H]2O)[C@@H](N)C[C@@H]1N=C(N)C(=O)O.Cl (stereo partly drawn) [Commercial fungicide B, Kasugamycin hydrochloride, reference compound]	–	–	–	–	–	–	–	–	–	–	Disease control (Pyricularia oryzae [2]; [10]): 82%; Disease severity (Pyricularia oryzae [2]; [10]): 17.5%
O=C1OCCC1=Cc1c(Cl)cccc1Cl [Compound 2, α-(2,6-dichlorobenzylidene)-γ-butyrolactone]	0	0	0	0	< 2	100	0	–	–	no	–
Cc1ccccc1C=C1CC(C)OC1=O (stereo not drawn) [Compound 5]	–	0	0	0	~2 (≈ 9.89 µM)	99	1.3	100	0	no	Diameter of mycelium (symbol) (Pyricularia oryzae [3]; 2 ppm): ±
CC1CC(=Cc2ccccc2)C(=O)O1 (stereo not drawn) [Control (ix), reference compound]	–	–	–	–	–	–	–	–	–	–	Disease control (Pyricularia oryzae [1]; [6]): 10%; Disease severity (Pyricularia oryzae [1]; [6]): 90.0%; Phytotoxicity ([4]; 500 ppm): no
O=C1OCCC1=Cc1ccccc1O [Control (iii), reference compound]	65.0	55.0	40.0	11.0	> 250	–	–	–	–	–	Disease control (Pyricularia oryzae [1]; [6]): 10%; Disease severity (Pyricularia oryzae [1]; [6]): 90.0%; Disease control (Pyricularia oryzae [2]; [7]): 0%; Disease severity (Pyricularia oryzae [2]; [7]): 97.5%; Phytotoxicity ([4]; 500 ppm): no
CC1CC(=Cc2c(F)cccc2Cl)C(=O)O1 (stereo not drawn) [Compound 3, α-(2-chloro-6-fluorobenzylidene)-γ-valerolactone]	0	0	0	0	< 2	100	0	100	0	no	–
CCC1CC(=Cc2ccccc2Cl)C(=O)O1 (stereo not drawn) [Compound 9, α-(o-chlorobenzylidene)-γ-ethyl-γ-butyrolactone]	–	0	0	0	~2 (≈ 8.45 µM)	99	1.3	99	1.3	no	Diameter of mycelium (symbol) (Pyricularia oryzae [3]; 2 ppm): ±
O=C1OCCC1=Cc1ccccc1 [Control (ii), reference compound]	68.5	49.0	35.5	–	~250 (≈ 1440 µM)	–	–	–	–	–	Disease control (Pyricularia oryzae [1]; [6]): 7%; Disease severity (Pyricularia oryzae [1]; [6]): 93.8%; Disease control (Pyricularia oryzae [2]; [7]): 0%; Disease severity (Pyricularia oryzae [2]; [7]): 97.5%; Diameter of mycelium (symbol) (Pyricularia oryzae [3]; 250 ppm): ±; Phytotoxicity ([4]; 500 ppm): no
CC1(C)CC(=Cc2ccccc2Cl)C(=O)O1 [Compound 11]	–	0	0	0	~2 (≈ 8.45 µM)	99	1.3	–	–	no	Diameter of mycelium (symbol) (Pyricularia oryzae [3]; 2 ppm): ±
